Results taken from patent US20230101046A1, “ANAPLASTIC LYMPHOMA KINASE CHIMERIC ANTIGEN RECEPTORS AND METHODS OF USE” (The Children's Medical Center Corporation, priority 2020, published 2023).

Assays:
Kelly or SH-SY5Y cells = experiment: Viability / proliferation of neuroblastoma cell lines treated with lorlatinib; assay type: cell-based, human; conditions: 100 nM
Experimental: First generation ALK tyrosine kinase inhibitors (TKIs), such as crizotinib, have limited therapeutic efficacy in neuroblastoma, while the third generation ALK TKI, lorlatinib, is effective against mutated neuroblastoma (Infarinato N R, et al., The ALK/ROS1 Inhibitor PF-06463922 Overcomes Primary Resistance to Crizotinib in ALK-Driven Neuroblastoma. Cancer Discov 2016 January; 6(1):96-107). The effects of lorlatinib on ALK viability and expression in neuroblastoma cells was evaluated. Several neuroblastoma cell lines with various ALK genetic alterations, including NB-1 (ALK WT amplified), IMR-32 (ALK WT), NBL-S(ALK WT), SH-SY5Y (mutated ALK^F1174L), Kelly (mutated ALK^F1174L), were treated with increasing doses of lorlatinib (FIG. 10A). Viability was measured at 48 hours.
In white 96-well plates, 3×10^4 cells/mL were grown in triplicates. The treatment with lorlatinib was done after 24 hour. Cell growth was analyzed 5 days after treatment using Cell Titer-GloMax assay (Promega, Fitchburg, Wis., USA), according to the manufacturer's instructions. In 24-well plates, 5×10^4 cells/mL were grown in triplicates. […] Apoptosis was measured 48 hours after treatment by flow cytometry after staining with the FITC Annexin V and propidium iodide (PI) Staining Solution Apoptosis Detection Kit I (BD Pharmingen) according to the manufacturer's instructions.

[1] = tested on: Eμ-myc/ALK systemic tumors; experiment: Adoptive transfer in CD19+/ALK+ systemic leukemia model; assay type: in vivo, mice
Experimental: The CD19+/ALK+systemic leukemia model was used to validate and rank cytolytic activity of ALK CARs in vivo. Adoptive transfer of ALK CAR-T cells was conducted in mice with Eμ-myc/ALK systemic tumors. Mice were treated with cytophspamide (CTX, 100 mg/kg) alone (n=8), cytophosphamide plus CAR-CD19 (15×10^6 based on GFP+) (n=8), or cytophosphamide plus CAR-ALK #5 (15×10^6 based on GFP+) (n=8). Untreated mice (n=6) were used as a negative control. FIG. 5A provides a survival curve of these treated mice.
Circulating CD19+/ALK+ tumor cells were found in peripheral blood (FIG. 5B, Left). An ALK+ tumor mass was isolated close to lymph node (FIG. 5B, Right). FACS analysis was also conducted on the 6 out of 8 mice that survived more than two months. No tumor cells were found in peripheral blood of these mice (FIG. 5C).

Row | SMILES | reduction of proliferation (Kelly or SH-SY5Y cells) | tumor cells in peripheral blood by FACS ([1]; CD19+/ALK+ cells) | survival of mice ([1]; Eμ-myc/ALK systemic tumors, CTX 100 mg/kg, CAR-T 15×10^6 based on GFP+)
1 | C[C@H]1Oc2cc(cnc2N)-c2c(nn(C)c2C#N)CN(C)C(=O)c2ccc(F)cc21 [Lorlatinib, lorlatinib] | less than 50% | – | –
2 | O=P1(N(CCCl)CCCl)NCCCO1 (stereo not drawn) [cyclophosphamide] | – | CD19+/ALK+ cells were found in one mouse | died within one month
